Values after ≈ are worked out from the molar mass of the structure shown. Residues, ends and D or L forms follow the SMILES beside them. No end group written: not given here. *: point of attachment. Myristoyl = CCCCCCCCCCCCCC(=O)*; Lauroyl = CCCCCCCCCCCC(=O)*; Decanoyl = CCCCCCCCCC(=O)*; Octanoyl = CCCCCCCC(=O)*; Hexanoyl = CCCCCC(=O)*

One test relates to Klebsiella pneumonia ATCC 13883. The class given is cell-based, Klebsiella pneumoniae.
Regarding `CCCCCC(=O)N[C@@H](CCCCN)C(=O)N[C@@H](CCCNC(=N)N)C(=O)N[C@H](C(=O)N[C@@H](Cc1c[nH]c2ccccc12)C(N)=O)[C@@H](C)CC` [Peptide C6-KR4] (Hexanoyl-KRIW-NH2; C-terminus assumed), the “MIC KP” value is over 50 µM.
Still for that read-out and setting: as for `CCCCCC(=O)N[C@@H](CCCCN)C(=O)N[C@@H](CCCNC(=N)N)C(=O)N[C@H](C(=O)N[C@@H](Cc1c[nH]c2ccccc12)C(=O)N[C@@H](CCC(N)=O)C(=O)N[C@@H](CCCNC(=N)N)C(N)=O)[C@@H](C)CC` [Peptide C6-KR6] (Hexanoyl-KRIWQR-NH2; C-terminus assumed), the figure is over 50 µM; as for `CCCCCC(=O)N[C@@H](CCCCN)C(=O)N[C@@H](CCCNC(=N)N)C(=O)N[C@H](C(=O)N[C@@H](Cc1c[nH]c2ccccc12)C(=O)N[C@@H](CCC(N)=O)C(=O)N[C@@H](CCCNC(=N)N)C(=O)N[C@H](C(=O)N[C@@H](CCCCN)C(N)=O)[C@@H](C)CC)[C@@H](C)CC` [Peptide C6-KR8] (Hexanoyl-KRIWQRIK-NH2), over 50 µM; as for `CCCCCC(=O)N[C@@H](CCCCN)C(=O)N[C@@H](CCCNC(=N)N)C(=O)N[C@H](C(=O)N[C@@H](Cc1c[nH]c2ccccc12)C(=O)N[C@@H](CCC(N)=O)C(=O)N[C@@H](CCCNC(=N)N)C(=O)N[C@H](C(=O)N[C@@H](CCCCN)C(=O)N[C@@H](CC(=O)O)C(=O)N[C@@H](Cc1ccccc1)C(N)=O)[C@@H](C)CC)[C@@H](C)CC` [Peptide C6-KR10] (Hexanoyl-KRIWQRIKDF-NH2), over 50 µM.
For the compound `CCCCCC(=O)N[C@@H](CCCCN)C(=O)N[C@@H](CCCNC(=N)N)C(=O)N[C@H](C(=O)N[C@@H](Cc1c[nH]c2ccccc12)C(=O)N[C@@H](CCC(N)=O)C(=O)N[C@@H](CCCNC(=N)N)C(=O)N[C@H](C(=O)N[C@@H](CCCCN)C(=O)N[C@@H](CC(=O)O)C(=O)N[C@@H](Cc1ccccc1)C(=O)N[C@@H](CC(C)C)C(=O)N[C@@H](CCCNC(=N)N)C(N)=O)[C@@H](C)CC)[C@@H](C)CC` [Peptide C6-KR12] (Hexanoyl-KRIWQRIKDFLR-NH2), the “MIC KP” value was 6.2 µM (≈ 10.9 µg/mL).
For the compound `CCCCCCCC(=O)N[C@@H](CCCCN)C(=O)N[C@@H](CCCNC(=N)N)C(=O)N[C@H](C(=O)N[C@@H](Cc1c[nH]c2ccccc12)C(N)=O)[C@@H](C)CC` [Peptide C8-KR4] (Octanoyl-KRIW-NH2; C-terminus assumed), the “MIC KP” value is over 50 µM.
Same read-out and setting: as for `CCCCCCCC(=O)N[C@@H](CCCCN)C(=O)N[C@@H](CCCNC(=N)N)C(=O)N[C@H](C(=O)N[C@@H](Cc1c[nH]c2ccccc12)C(=O)N[C@@H](CCC(N)=O)C(=O)N[C@@H](CCCNC(=N)N)C(N)=O)[C@@H](C)CC` [Peptide C8-KR6] (Octanoyl-KRIWQR-NH2; C-terminus assumed), the figure is over 50 µM; as for `CCCCCCCC(=O)N[C@@H](CCCCN)C(=O)N[C@@H](CCCNC(=N)N)C(=O)N[C@H](C(=O)N[C@@H](Cc1c[nH]c2ccccc12)C(=O)N[C@@H](CCC(N)=O)C(=O)N[C@@H](CCCNC(=N)N)C(=O)N[C@H](C(=O)N[C@@H](CCCCN)C(N)=O)[C@@H](C)CC)[C@@H](C)CC` [Peptide C8-KR8] (Octanoyl-KRIWQRIK-NH2), over 50 µM; as for `CCCCCCCC(=O)N[C@@H](CCCCN)C(=O)N[C@@H](CCCNC(=N)N)C(=O)N[C@H](C(=O)N[C@@H](Cc1c[nH]c2ccccc12)C(=O)N[C@@H](CCC(N)=O)C(=O)N[C@@H](CCCNC(=N)N)C(=O)N[C@H](C(=O)N[C@@H](CCCCN)C(=O)N[C@@H](CC(=O)O)C(=O)N[C@@H](Cc1ccccc1)C(=O)N[C@@H](CC(C)C)C(=O)N[C@@H](CCCNC(=N)N)C(N)=O)[C@@H](C)CC)[C@@H](C)CC` [Peptide C8-KR12] (Octanoyl-KRIWQRIKDFLR-NH2), under 6.2 µM.
Regarding `CCCCCCCCCC(=O)N[C@@H](CCCCN)C(=O)N[C@@H](CCCNC(=N)N)C(=O)N[C@H](C(=O)N[C@@H](Cc1c[nH]c2ccccc12)C(N)=O)[C@@H](C)CC` [Peptide C10-KR4] (Decanoyl-KRIW-NH2; C-terminus assumed), the “MIC KP” value was over 50 µM.
Same read-out and setting: as for `CCCCCCCCCC(=O)N[C@@H](CCCCN)C(=O)N[C@@H](CCCNC(=N)N)C(=O)N[C@H](C(=O)N[C@@H](Cc1c[nH]c2ccccc12)C(=O)N[C@@H](CCC(N)=O)C(=O)N[C@@H](CCCNC(=N)N)C(N)=O)[C@@H](C)CC` [Peptide C10-KR6] (Decanoyl-KRIWQR-NH2; C-terminus assumed), the figure is over 50 µM; as for `CCCCCCCCCC(=O)N[C@@H](CCCCN)C(=O)N[C@@H](CCCNC(=N)N)C(=O)N[C@H](C(=O)N[C@@H](Cc1c[nH]c2ccccc12)C(=O)N[C@@H](CCC(N)=O)C(=O)N[C@@H](CCCNC(=N)N)C(=O)N[C@H](C(=O)N[C@@H](CCCCN)C(=O)N[C@@H](CC(=O)O)C(=O)N[C@@H](Cc1ccccc1)C(N)=O)[C@@H](C)CC)[C@@H](C)CC` [Peptide C10-KR10] (Decanoyl-KRIWQRIKDF-NH2), 6.2 µM (≈ 9.57 µg/mL).
Consider `CCCCCCCCCC(=O)N[C@@H](CCCCN)C(=O)N[C@@H](CCCNC(=N)N)C(=O)N[C@H](C(=O)N[C@@H](Cc1c[nH]c2ccccc12)C(=O)N[C@@H](CCC(N)=O)C(=O)N[C@@H](CCCNC(=N)N)C(=O)N[C@H](C(=O)N[C@@H](CCCCN)C(=O)N[C@@H](CC(=O)O)C(=O)N[C@@H](Cc1ccccc1)C(=O)N[C@@H](CC(C)C)C(=O)N[C@@H](CCCNC(=N)N)C(N)=O)[C@@H](C)CC)[C@@H](C)CC` [Peptide C10-KR12] (Decanoyl-KRIWQRIKDFLR-NH2), for which the “MIC KP” value was 6.2 to 12.5 µM.
For the compound `CCCCCCCCCCCC(=O)N[C@@H](CCCCN)C(=O)N[C@@H](CCCNC(=N)N)C(=O)N[C@H](C(=O)N[C@@H](Cc1c[nH]c2ccccc12)C(N)=O)[C@@H](C)CC` [Peptide C12-KR4] (Lauroyl-KRIW-NH2; C-terminus assumed), the “MIC KP” value is over 50 µM.
On the same count and under the same terms, as for `CCCCCCCCCCCC(=O)N[C@@H](CCCCN)C(=O)N[C@@H](CCCNC(=N)N)C(=O)N[C@H](C(=O)N[C@@H](Cc1c[nH]c2ccccc12)C(=O)N[C@@H](CCC(N)=O)C(=O)N[C@@H](CCCNC(=N)N)C(N)=O)[C@@H](C)CC` [Peptide C12-KR6] (Lauroyl-KRIWQR-NH2; C-terminus assumed), the figure is over 50 µM; as for `CCCCCCCCCCCC(=O)N[C@@H](CCCCN)C(=O)N[C@@H](CCCNC(=N)N)C(=O)N[C@H](C(=O)N[C@@H](Cc1c[nH]c2ccccc12)C(=O)N[C@@H](CCC(N)=O)C(=O)N[C@@H](CCCNC(=N)N)C(=O)N[C@H](C(=O)N[C@@H](CCCCN)C(N)=O)[C@@H](C)CC)[C@@H](C)CC` [Peptide C12-KR8] (Lauroyl-KRIWQRIK-NH2), over 50 µM.
For the compound `CCCCCCCCCCCC(=O)N[C@@H](CCCCN)C(=O)N[C@@H](CCCNC(=N)N)C(=O)N[C@H](C(=O)N[C@@H](Cc1c[nH]c2ccccc12)C(=O)N[C@@H](CCC(N)=O)C(=O)N[C@@H](CCCNC(=N)N)C(=O)N[C@H](C(=O)N[C@@H](CCCCN)C(=O)N[C@@H](CC(=O)O)C(=O)N[C@@H](Cc1ccccc1)C(N)=O)[C@@H](C)CC)[C@@H](C)CC` [Peptide C12-KR10] (Lauroyl-KRIWQRIKDF-NH2), the “MIC KP” value amounted to 3.1 µM (≈ 4.87 µg/mL).
Still for that read-out and setting: as for `CCCCCCCCCCCC(=O)N[C@@H](CCCCN)C(=O)N[C@@H](CCCNC(=N)N)C(=O)N[C@H](C(=O)N[C@@H](Cc1c[nH]c2ccccc12)C(=O)N[C@@H](CCC(N)=O)C(=O)N[C@@H](CCCNC(=N)N)C(=O)N[C@H](C(=O)N[C@@H](CCCCN)C(=O)N[C@@H](CC(=O)O)C(=O)N[C@@H](Cc1ccccc1)C(=O)N[C@@H](CC(C)C)C(=O)N[C@@H](CCCNC(=N)N)C(N)=O)[C@@H](C)CC)[C@@H](C)CC` [Peptide C12-KR12] (Lauroyl-KRIWQRIKDFLR-NH2), the figure is 12.5 µM (≈ 23 µg/mL).
Still for that read-out and setting: as for `CCCCCCCCCCCCCC(=O)N[C@@H](CCCCN)C(=O)N[C@@H](CCCNC(=N)N)C(=O)N[C@H](C(=O)N[C@@H](Cc1c[nH]c2ccccc12)C(N)=O)[C@@H](C)CC` [Peptide C14-KR4] (Myristoyl-KRIW-NH2; C-terminus assumed), the figure is 12.5 µM (≈ 10.1 µg/mL); as for `CCCCCCCCCCCCCC(=O)N[C@@H](CCCCN)C(=O)N[C@@H](CCCNC(=N)N)C(=O)N[C@H](C(=O)N[C@@H](Cc1c[nH]c2ccccc12)C(=O)N[C@@H](CCC(N)=O)C(=O)N[C@@H](CCCNC(=N)N)C(N)=O)[C@@H](C)CC` [Peptide C14-KR6] (Myristoyl-KRIWQR-NH2; C-terminus assumed), over 50 µM.
For `CCCCCCCCCCCCCC(=O)N[C@@H](CCCCN)C(=O)N[C@@H](CCCNC(=N)N)C(=O)N[C@H](C(=O)N[C@@H](Cc1c[nH]c2ccccc12)C(=O)N[C@@H](CCC(N)=O)C(=O)N[C@@H](CCCNC(=N)N)C(=O)N[C@H](C(=O)N[C@@H](CCCCN)C(N)=O)[C@@H](C)CC)[C@@H](C)CC` [Peptide C14-KR8] (Myristoyl-KRIWQRIK-NH2), the “MIC KP” value is over 50 µM.
Still for that read-out and setting: next, `CCCCCCCCCCCCCC(=O)N[C@@H](CCCCN)C(=O)N[C@@H](CCCNC(=N)N)C(=O)N[C@H](C(=O)N[C@@H](Cc1c[nH]c2ccccc12)C(=O)N[C@@H](CCC(N)=O)C(=O)N[C@@H](CCCNC(=N)N)C(=O)N[C@H](C(=O)N[C@@H](CCCCN)C(=O)N[C@@H](CC(=O)O)C(=O)N[C@@H](Cc1ccccc1)C(N)=O)[C@@H](C)CC)[C@@H](C)CC` [Peptide C14-KR10] (Myristoyl-KRIWQRIKDF-NH2): 6.2 µM (≈ 9.91 µg/mL); “KRIVQRIKDFLR-NH2 [KR12, reference compound]”: over 50 µM.

For another test, the system named is P. aeruginosa PAO1. The test is classed as cell-based, Pseudomonas aeruginosa.
Consider `CCCCCCCCCC(=O)N[C@@H](CCCCN)C(=O)N[C@@H](CCCNC(=N)N)C(=O)N[C@H](C(=O)N[C@@H](Cc1c[nH]c2ccccc12)C(=O)N[C@@H](CCC(N)=O)C(=O)N[C@@H](CCCNC(=N)N)C(=O)N[C@H](C(=O)N[C@@H](CCCCN)C(=O)N[C@@H](CC(=O)O)C(=O)N[C@@H](Cc1ccccc1)C(N)=O)[C@@H](C)CC)[C@@H](C)CC` [Peptide C10-KR10] (Decanoyl-KRIWQRIKDF-NH2), for which the “MIC PA” value was 6.2 µM (≈ 9.57 µg/mL).
In the case of `CCCCCCCCCCCC(=O)N[C@@H](CCCCN)C(=O)N[C@@H](CCCNC(=N)N)C(=O)N[C@H](C(=O)N[C@@H](Cc1c[nH]c2ccccc12)C(=O)N[C@@H](CCC(N)=O)C(=O)N[C@@H](CCCNC(=N)N)C(=O)N[C@H](C(=O)N[C@@H](CCCCN)C(=O)N[C@@H](CC(=O)O)C(=O)N[C@@H](Cc1ccccc1)C(N)=O)[C@@H](C)CC)[C@@H](C)CC` [Peptide C12-KR10] (Lauroyl-KRIWQRIKDF-NH2), the “MIC PA” value came out at 3.1 µM (≈ 4.87 µg/mL).

In another test the test system is E. coli ATCC25922.
With “KRIVQRIKDFLR-NH2 [KR12, reference compound]”, the “MIC EC” value was over 50 µM.

For the origin of these results see publication PMC9082781 (ACS infectious diseases, 2021).
